The source of these data is US8633005B2, “Isocyclomaltooligosaccharide(s), isocyclomaltooligosaccharide-forming enzyme, their preparation and uses” (Hayashibara Co., Ltd., priority 2004, dated 2014).

Read-outs that look alike come from different tables or passages of the source.

Data set [1] relates to ICM-forming enzyme. As to the kind of experiment: Action on various saccharides (substrate specificity, TLC). Details: key: −: Not changed; +: Spot of substrate is slightly decreased and the formation of ICM are detected; ++: Spot of substrate is markedly decreased and the formation of ICM are detected; +++: Spot of substrate is virtually disappeared and the formation of ICM are detected. The settings on record: substrate 2% (w/v), one unit/g-substrate enzyme, 40° C., pH 6.0, 24 hours. Format: biochemical, Bacillus circulans AM7. Here is the method:
Substrate specificity of ICM-forming enzyme was investigated using various saccharides as substrates. Substrate solutions were prepared by dissolving maltose, maltotriose, maltotetraose, maltopentaose, maltohexaose, maltoheptaose, neotrehalose, trehalose, kojibiose, nigerose, isomaltose, isomaltotriose, panose, isopanose, maltitol, maltotriitol, α-, β-, or γ-cyclodextrin, amylose, soluble starch, glycogen, pullulan or dextran in water. Each substrate solution was admixed with acetate buffer (pH 6.0) and CaCl2 to give final concentrations of 20 mM and 1 mM, respectively. […] Substrate concentration was set to 2% (w/v) and followed by the enzyme reaction at 40° C. and pH 6.0 for 24 hours. To examine the saccharides in each mixture before and after the reaction, saccharides were separated by silica gel thin-layer chromatography (hereinafter, simply abbreviated as “TLC”) using “KIESELGEL 60”, a TLC aluminum plate (10×20 cm) and a solvent (n-butanol/pyridine/water, volume ratio of 6:4:1) and two-times ascending method. The separated saccharides on the plate were detected by visualizing the spots with sulfate-methanol method. By the above TLC analyses, the enzymatic action and the degree of the reaction of ICM-forming enzyme on each substrate were confirmed.

For data set [2], the system named is small intestinal enzymes. As to the kind of experiment: Digestibility of ICM by small intestinal enzymes. The settings on record: reducing saccharides/total saccharides x100.
Source text: (§1) 43, 23-29 (1990), the digestibility of ICM by salivary α-amylase, artificial gastric juice, pancreas amylase, and small intestinal enzymes were investigated using ICG5, used in Experiment 15. […] In Table 18, the digestion (%) means a value calculated by the formula: Digestion (%)=(The amount of reducing saccharides/The amount of the total saccharides)×100 , in respective reaction described above.
Data set [3] is described as follows: Digestibility of ICM by artificial gastric juice. The settings on record: reducing saccharides/total saccharides x100.
Source text: as §1
Data set [4] deals with T1, salivary α-amylase (Homo sapiens, UniProt P0DUB6).
T1 sequence (P0DUB6 16-511): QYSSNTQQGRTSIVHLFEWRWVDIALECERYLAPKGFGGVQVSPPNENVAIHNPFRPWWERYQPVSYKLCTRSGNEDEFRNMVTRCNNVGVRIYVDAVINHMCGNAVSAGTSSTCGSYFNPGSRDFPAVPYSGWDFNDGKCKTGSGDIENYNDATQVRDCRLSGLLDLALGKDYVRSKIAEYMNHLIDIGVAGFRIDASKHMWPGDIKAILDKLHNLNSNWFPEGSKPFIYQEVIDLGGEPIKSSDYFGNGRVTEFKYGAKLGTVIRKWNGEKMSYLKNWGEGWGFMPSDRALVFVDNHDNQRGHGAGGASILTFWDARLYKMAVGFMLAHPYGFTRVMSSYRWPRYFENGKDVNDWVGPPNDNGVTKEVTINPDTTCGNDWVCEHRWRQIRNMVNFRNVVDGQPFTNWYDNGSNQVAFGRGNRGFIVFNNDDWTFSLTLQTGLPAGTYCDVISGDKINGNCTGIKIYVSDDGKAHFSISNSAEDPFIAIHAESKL
The data set can be described thus: Digestibility of ICM by salivary α-amylase. The following applies: reducing saccharides/total saccharides x100.
Source text: as §1

Data set [5] has as its system pancreas α-amylase. As to the kind of experiment: Digestibility of ICM by pancreas α-amylase. The settings on record: reducing saccharides/total saccharides x100.
Source text: as §1
The nature of data set [6]: Clathrating action of ICM (amount of compound clathrated, gas-chromatography). Format: physicochemical. The settings on record: 3-folds molar amount. Here is the method: ICG5 used in Experiment 15, was dissolved in deionized water to make into an aqueous solution containing 20% (w/v) of ICG5. Twenty milliliters of the aqueous solution was admixed with 3-folds amount, on a molar basis to ICG5, of either of four kinds of short chain alcohols, i.e., methanol, ethanol, propanol, and butanol; four kinds of short chain fatty acids, i.e., acetic acid, propionic acid, n-butyric acid, and n-valeic acid; and four kinds of aromatic compounds, i.e., benzyl alcohol, phenethyl alcohol, 4-phenyl-1-propanol, and o-cresol; and then stirred the mixture to homogeneity for allowing ICG5 to clathrate the compound. Successively, each solution was filtrated, and the resulting filtrate was freeze-dried to remove unclathrated compound. In order to measure the amount of compound clathrated in the freeze-dried product, the amount of each compound in each freeze-dried product was determined by gas-chromatography. Alpha-CD was used as a control and subjected to the similar test.

The subject of data set [7] is small intestinal enzymes.
Source text: as §1
The nature of data set [8]: Amino-carbonyl reaction with glycine. Format: physicochemical. The settings on record: 5% (w/v) saccharide + 1% (w/v) glycine, pH 7.0, 120° C., blank subtracted. Here is the method: ICG5, used in Experiment 15 and commercially available super high-grade glycine were dissolved in deionized water, and then admixed with phosphate buffer to make into an aqueous ICG5 solution containing 5% (w/v) of ICG5 and 1% (w/v) glycine, adjusted to pH 7.0. As a control, an aqueous α-cyclodextrin (α-CD) solution containing α-CD and glycine was prepared in the same manner using α-CD in place of ICG5. Four milliliters each of the solution was put in a glass tube, sealed and then heated at 120° C. for 30, 60, or 90 min. After cooling the solutions in ambient temperature, the degrees of coloring of the solutions were measured to estimate the degree of amino-carbonyl reaction. As a blank test, a solution containing glycine only was heated in the same manner. The degree of coloring was defined as an absorbance at 480 nm using a 1 cm-cell after subtracting the absorbance of the blank test.

The nature of data set [9]: Amino-carbonyl reaction with polypeptone. In kind it is physicochemical. The settings on record: with 5% (w/v) polypeptone, 120° C., blank subtracted. Here is the method: ICG5 used in Experiment 15 and commercially available polypeptone, commercialized by Nihon Pharmaceutical Co., Ltd., Tokyo, Japan, were dissolved in deionized water to make into an aqueous solution containing […] and 5% (w/v) of polypeptone. As a control, an aqueous solution containing α-CD and polypeptone was prepared in the same manner using α-CD in place of ICG5. Four milliliters each of the solution was put in a glass tube, sealed and then heated at 120° C. for 30, 60, or 90 min. After cooling the solutions in ambient temperature, the degrees of coloring of the solutions were measured to estimate the degree of amino-carbonyl reaction. As a blank test, a solution containing polypeptone only was heated in the same manner. The degree of coloring was defined as an absorbance at 480 nm using a 1 cm-cell after subtracting the absorbance of the blank test.

Take `OC[C@H]1O[C@@H]2O[C@H]3[C@H](O)[C@@H](O)[C@@H](O[C@H]4[C@H](O)[C@@H](O)[C@@H](O[C@H]5[C@H](O)[C@@H](O)[C@@H](O[C@H]6[C@H](O)[C@@H](O)[C@@H](O[C@H]7[C@H](O)[C@@H](O)[C@@H](O[C@H]8[C@H](O)[C@@H](O)[C@@H](O[C@H]9[C@H](O)[C@@H](O)[C@@H](O[C@H]1[C@H](O)[C@H]2O)O[C@@H]9CO)O[C@@H]8CO)O[C@@H]7CO)O[C@@H]6CO)O[C@@H]5CO)O[C@@H]4CO)O[C@@H]3CO` [γ-CD, γ-cyclodextrin]: the Action result in data set [1] is “−”. Further, the Digestion in data set [2] turned out to be 57.4%; in [3], 0%; in [4], 0.1%; in data set [5] it was 5.4%.

With `OC[C@H]1O[C@@H]2O[C@H]3[C@H](O)[C@@H](O)[C@@H](O[C@H]4[C@H](O)[C@@H](O)[C@@H](O[C@H]5[C@H](O)[C@@H](O)[C@@H](O[C@H]6[C@H](O)[C@@H](O)[C@@H](O[C@H]7[C@H](O)[C@@H](O)[C@@H](O[C@H]8[C@H](O)[C@@H](O)[C@@H](O[C@H]1[C@H](O)[C@H]2O)O[C@@H]8CO)O[C@@H]7CO)O[C@@H]6CO)O[C@@H]5CO)O[C@@H]4CO)O[C@@H]3CO` [β-CD, β-cyclodextrin], in data set [1], the Action result is on record as “−”. For the same compound, the Digestion in data set [2] is on record as 1.1%; in data set [3] it was 0%; in [4], 0%; in data set [5], 0.2%.

Take `OC[C@H]1O[C@@H]2O[C@H]3[C@H](O)[C@@H](O)[C@@H](O[C@H]4[C@H](O)[C@@H](O)[C@@H](O[C@H]5[C@H](O)[C@@H](O)[C@@H](O[C@H]6[C@H](O)[C@@H](O)[C@@H](O[C@H]7[C@H](O)[C@@H](O)[C@@H](O[C@H]1[C@H](O)[C@H]2O)O[C@@H]7CO)O[C@@H]6CO)O[C@@H]5CO)O[C@@H]4CO)O[C@@H]3CO` [α-CD, α-cyclodextrin]: in data set [1], the Action result is given as “−”. In addition, the “Amount of compound clathrated” value in [6] (objective compound: 4-Phenyl 1-propanol (aromatic compound)) came out at 171.5 mg/g-freeze-dried product; in [6] (objective compound: Acetic acid (short chain fatty acid)), 15.1 mg/g-freeze-dried product; in data set [6] (objective compound: Benzyl alcohol (aromatic compound)) it was 165.7 mg/g-freeze-dried product; in data set [6] (objective compound: Butanol (short chain alcohol)) it was 79.5 mg/g-freeze-dried product; in data set [6] (objective compound: Ethanol (short chain alcohol)) it was 36.7 mg/g-freeze-dried product; in data set [6] (objective compound: Methanol (short chain alcohol)), 16.7 mg/g-freeze-dried product. The “Amount of compound clathrated” value in data set [6] (objective compound: Phenethyl alcohol (aromatic compound)) worked out at 144.4 mg/g-freeze-dried product; in [6] (objective compound: Propanol (short chain alcohol)), 66.8 mg/g-freeze-dried product; in data set [6] (objective compound: Propionic acid (short chain fatty acid)) it was 16.6 mg/g-freeze-dried product; in data set [6] (objective compound: n-Butyric acid (short chain fatty acid)), 13.2 mg/g-freeze-dried product; in data set [6] (objective compound: n-Valeic acid (short chain fatty acid)), 45.0 mg/g-freeze-dried product; in [6] (objective compound: o-Cresol (aromatic compound)), 49.5 mg/g-freeze-dried product. Also, the Digestion in [4] is on record as 0%; in data set [7], 0.2%; in data set [5] it was 0%. Further, the Degree of coloring in data set [8] (heating time 0 min) is 0.02 A480 nm; in data set [8] (heating time 30 min) it was 0.02 A480 nm; in data set [8] (heating time 60 min), 0.03 A480 nm; in [8] (heating time 90 min) it was 0.02 A480 nm; in [9] (heating time 0 min), 0.01 A480 nm; in data set [9] (heating time 30 min), 0.03 A480 nm. Further, the Degree of coloring in data set [9] (heating time 60 min) was 0.04 A480 nm; in data set [9] (heating time 90 min) it was 0.06 A480 nm.
